Experimental data as given in US20130252890A1, “6,7-DIHYDRO-5H-BENZO[7]ANNULENE DERIVATIVES, PROCESS FOR PREPARATION THEREOF, PHARMACEUTICAL PREPARATIONS COMPRISING THEM, AND THE USE THEREOF FOR PRODUCTION OF MEDICAMENTS” (BAYER INTELLECTUAL PROPERTY GMBH, priority 2010, published 2013).

Target: T1, oestrogen receptor (ER) (Homo sapiens, UniProt P03372)
T1 construct: These MVLN cells express, along with the functional oestrogen receptor (ER), a reporter construct; endogenous in cells; host or cells: MVLN cells (MCF7 derivative carrying a luciferase reporter construct)
T1 sequence (P03372 1-595): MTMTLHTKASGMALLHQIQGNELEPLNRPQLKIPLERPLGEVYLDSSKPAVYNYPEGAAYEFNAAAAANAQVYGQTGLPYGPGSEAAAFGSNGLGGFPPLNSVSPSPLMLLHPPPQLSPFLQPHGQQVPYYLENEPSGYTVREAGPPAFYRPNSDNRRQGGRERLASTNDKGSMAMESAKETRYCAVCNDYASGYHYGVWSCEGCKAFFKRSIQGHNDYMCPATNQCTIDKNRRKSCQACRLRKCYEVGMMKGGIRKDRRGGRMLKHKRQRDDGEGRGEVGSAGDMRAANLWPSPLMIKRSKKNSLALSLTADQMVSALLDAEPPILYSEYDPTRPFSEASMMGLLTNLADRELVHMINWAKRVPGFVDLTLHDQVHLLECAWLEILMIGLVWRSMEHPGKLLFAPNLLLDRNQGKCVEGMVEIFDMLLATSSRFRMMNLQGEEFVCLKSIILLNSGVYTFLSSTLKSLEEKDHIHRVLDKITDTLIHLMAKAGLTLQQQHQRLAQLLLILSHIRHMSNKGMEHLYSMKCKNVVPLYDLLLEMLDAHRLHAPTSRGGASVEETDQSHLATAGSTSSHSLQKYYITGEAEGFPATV
Test: Anti-oestrogenic action in MVLN cells (inhibition of estradiol-induced luciferase)
Assay type: cell-based
Conditions: inhibition of estradiol-induced luciferase signal, value of Ex. 44 is a mean value, read-out: Antioestrogenic action in vitro: MVLN transactivation antagonism IC50
In short: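 MVLN cells, MCF7 breast cancer derivatives carrying functional ER plus an ER-activated luciferase reporter, were treated with compounds in the presence of estradiol. Anti-oestrogenic activity taken as inhibition of the estradiol-induced luciferase signal.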

IC50 | SMILES
4 nM | CN(CCCCCCC1=C(c2ccc(F)cc2F)CCCc2cc(O)ccc21)CCCCS(=O)(=O)CCCC(F)(F)F [Example 132, 8-(2,4-Difluorophenyl)-9-[6-(methyl{4-[(4,4,4-trifluorobutyl)sulphonyl]butyl}amino)hexyl]-6,7-dihydro-5H-benzo[7]annulen-3-ol]
18 nM | CN(CCCCCCC1=C(c2ccc(F)c(F)c2)CCCc2cc(O)ccc21)CCCS(=O)(=O)CCCCC(F)(F)F [Example 73, 8-(3,4-Difluorophenyl)-9-[6-(methyl{3-[(5,5,5-trifluoropentyl)sulphonyl]propyl}amino)hexyl]-6,7-dihydro-5H-benzo[7]annulen-3-ol]
15 nM | O=S(=O)(CCCN(CCCO)CCCCCCC1=C(c2ccc(F)cc2)CCCc2c1ccc(O)c2F)CCCC(F)(F)C(F)(F)F [Example 60, 4-Fluoro-8-(4-fluorophenyl)-9-{6-[(3-hydroxypropyl){3-[(4,4,5,5,5-pentafluoropentyl)sulphonyl]propyl}amino]hexyl}-6,7-dihydro-5H-benzo[7]annulen-3-ol]
14 nM | N#CCN(CCCCCCC1=C(c2ccc(F)cc2)CCCc2cc(O)ccc21)CCCCS(=O)(=O)CCCC(F)(F)F [Example 90, ({6-[8-(4-Fluorophenyl)-3-hydroxy-6,7-dihydro-5H-benzo[7]annulen-9-yl]hexyl}{4-[(4,4,4-trifluorobutyl)sulphonyl]butyl}amino)acetonitrile]
13 nM | COC(=O)CN(CCCCCCC1=C(c2ccc(F)cc2)CCCc2cc(O)ccc21)CCCCS(=O)(=O)CCCC(F)(F)F [Example 82, Methyl-N-{6-[8-(4-fluorophenyl)-3-hydroxy-6,7-dihydro-5H-benzo[7]annulen-9-yl]hexyl}-N-{4-[(4,4,4-trifluorobutyl)sulphonyl]butyl}glycinate]
31 nM | CN(CCCCCCC1=C(c2ccc(F)cc2)CCCc2cc(O)ccc21)CCCSCCCC(F)(F)C(F)(F)F [Example 78, 8-(4-Fluorophenyl)-9-[6-(methyl{3-[(4,4,5,5,5-pentafluoropentyl)sulphanyl]propyl}amino)hexyl]-6,7-dihydro-5H-benzo[7]annulen-3-ol]
20 nM | O=S(=O)(CCCCNCCCCCCC1=C(c2cc(F)cc(F)c2)CCCc2cc(O)ccc21)CCCC(F)(F)F [Example 67, 8-(3,5-Difluorophenyl)-9-[6-({4-[(4,4,4-trifluorobutyl)sulphonyl]butyl}amino)hexyl]-6,7-dihydro-5H-benzo[7]annulen-3-ol]
86 nM | O=S(=O)(CCCN(CCCCCCC1=C(c2ccc(F)cc2)CCCc2c1ccc(O)c2F)CC(F)F)CCCC(F)(F)C(F)(F)F [Example 64, 9-{6-[(2,2-Difluoroethyl){3-[(4,4,5,5,5-pentafluoropentyl)sulphonyl]propyl}amino]hexyl}-4-fluoro-8-(4-fluorophenyl)-6,7-dihydro-5H-benzo[7]annulen-3-ol]
73 nM | CN(CCCCCCC1=C(c2ccc(F)cc2)CCCc2cc(O)ccc21)CCCS(=O)(=O)CCC(F)(C(F)(F)F)C(F)(F)F [Example 110, 8-(4-Fluorophenyl)-9-{6-[methyl(3-{[3,4,4,4-tetrafluoro-3-(trifluoromethyl)butyl]sulphonyl}propyl)amino]hexyl}-6,7-dihydro-5H-benzo[7]annulen-3-ol]
19 nM | O=C(O)CCN(CCCCCCC1=C(c2ccc(F)cc2)CCCc2cc(O)ccc21)CCCCS(=O)(=O)CCCC(F)(F)F [Example 95, N-{6-[8-(4-Fluorophenyl)-3-hydroxy-6,7-dihydro-5H-benzo[7]annulen-9-yl]hexyl}-N-{4-[(4,4,4-trifluorobutyl)sulphonyl]butyl}-beta-alanine]
10 nM | O=S(=O)(CCCCNCCCCCCC1=C(c2ccc(F)cc2)CCCc2cc(O)ccc21)CCCC(F)(F)F [Example 77, 8-(4-Fluorophenyl)-9-[6-({4-[(4,4,4-trifluorobutyl)sulphonyl]butyl}amino)hexyl]-6,7-dihydro-5H-benzo[7]annulen-3-ol]
252 nM | O=S(=O)(CCCN(CCCCCCC1=C(c2ccc(F)cc2)CCCc2c1ccc(O)c2F)CC(F)(F)F)CCCC(F)(F)C(F)(F)F [Example 84, 4-Fluoro-8-(4-fluorophenyl)-9-{6-[{3-[(4,4,5,5,5-pentafluoropentyl)sulphonyl]propyl}(2,2,2-trifluoroethyl)amino]hexyl}-6,7-dihydro-5H-benzo[7]annulen-3-ol]
3 nM | CN(CCCCCCC1=C(c2ccc(F)cc2F)CCCc2cc(O)ccc21)CCCCS(=O)(=O)CCC(F)(F)F [Example 131, 8-(2,4-Difluorophenyl)-9-[6-(methyl{4-[(3,3,3-trifluoropropyl)sulphonyl]butyl}amino)hexyl]-6,7-dihydro-5H-benzo[7]annulen-3-ol]
41 nM | CN(CCCCCCC1=C(c2ccc(F)cc2)CCCc2cc(O)ccc21)CCCS(=O)(=O)C1CCC(F)(F)CC1 [Example 121, 9-{6-[{3-[(4,4-difluorocyclohexyl)sulphonyl]propyl}(methyl)amino]hexyl}-8-(4-fluorophenyl)-6,7-dihydro-5H-benzo[7]annulen-3-ol]
6 nM | CN(CCCCCCC1=C(c2ccc(F)cc2)CCCc2cc(O)c(F)cc21)CCCCS(=O)(=O)CCCC(F)(F)F [Example 101, 2-Fluoro-8-(4-fluorophenyl)-9-[6-(methyl{4-[(4,4,4-trifluorobutyl)sulphonyl]butyl}amino)hexyl]-6,7-dihydro-5H-benzo[7]annulen-3-ol]

The remaining lines, values behind:

SMILES | IC50
CN(CCCCCCC1=C(c2ccc(F)c(F)c2)CCCc2cc(O)ccc21)CCCS(=O)(=O)CCC(F)(F)C(F)(F)F [Example 19, 8-(3,4-Difluorophenyl)-9-[6-(methyl{3-[(3,3,4,4,4-pentafluorobutyl)sulphonyl]propyl}amino)hexyl]-6,7-dihydro-5H-benzo[7]annulen-3-ol] | 62 nM
CN(CCCCCCC1=C(c2ccc(F)cc2)CCCc2c1ccc(O)c2F)CCCS(=O)(=O)CCC(F)(F)F [Example 37, 4-Fluoro-8-(4-fluorophenyl)-9-[6-(methyl{3-[(3,3,3-trifluoropropyl)sulphonyl]propyl}amino)hexyl]-6,7-dihydro-5H-benzo[7]annulen-3-ol] | 53 nM
CN(CCCCCCC1=C(c2ccc(F)c(F)c2)CCCc2cc(O)ccc21)CCC[S+]([O-])CCC(F)(F)F (stereo not shown) [Example 21, 8-(3,4-Difluorophenyl)-9-[6-(methyl{3-[(3,3,3-trifluoropropyl)sulphinyl]propyl}amino)hexyl]-6,7-dihydro-5H-benzo[7]annulen-3-ol] | 48 nM
CN(CCCCCCC1=C(c2cc(F)cc(F)c2)CCCc2cc(O)ccc21)CCCC[S+]([O-])CCCC(F)(F)C(F)(F)F (stereo not shown) [Example 4, 8-(3,5-Difluorophenyl)-9-[6-(methyl{4-[(4,4,5,5,5-pentafluoropentyl)sulphinyl]butyl}amino)hexyl]-6,7-dihydro-5H-benzo[7]annulen-3-ol] | 6 nM
COCCCN(CCCCCCC1=C(c2ccc(F)cc2)CCCc2c1ccc(O)c2F)CCCS(=O)(=O)CCCC(F)(F)C(F)(F)F [Example 41, 4-Fluoro-8-(4-fluorophenyl)-9-{6-[(3-methoxypropyl){3-[(4,4,5,5,5-pentafluoropentyl)sulphonyl]propyl}amino]hexyl}-6,7-dihydro-5H-benzo[7]annulen-3-ol] | 42 nM
O=S(=O)(CCCN(CCO)CCCCCCC1=C(c2ccc(F)cc2)CCCc2cc(O)ccc21)CCC(F)(F)F [Example 56, 8-(4-Fluorophenyl)-9-{6-[(2-hydroxyethyl){3-[(3,3,3-trifluoropropyl)sulphonyl]propyl}amino]hexyl}-6,7-dihydro-5H-benzo[7]annulen-3-ol] | 29 nM
O=S(=O)(CCCN(CCCCCCC1=C(c2ccc(F)cc2)CCCc2cc(O)ccc21)Cc1ccc(F)cc1)CCCC(F)(F)C(F)(F)F [Example 58, 9-{6-[(4-Fluorobenzyl){3-[(4,4,5,5,5-pentafluoropentyl)sulphonyl]propyl}amino]hexyl}-8-(4-fluorophenyl)-6,7-dihydro-5H-benzo[7]annulen-3-ol] | 184 nM
COCCCN(CCCCCCC1=C(c2ccc(F)c(F)c2)CCCc2cc(O)ccc21)CCCS(=O)(=O)CCCC(F)(F)C(F)(F)F [Example 32, 8-(3,4-Difluorophenyl)-9-{6-[(3-methoxypropyl){3-[(4,4,5,5,5-pentafluoropentyl)sulphonyl]propyl}amino]hexyl}-6,7-dihydro-5H-benzo[7]annulen-3-ol] | 33 nM
CN(CCCCCCC1=C(c2ccc(F)c(F)c2)CCCc2cc(O)ccc21)CCC[S+]([O-])CCCC(F)(F)C(F)(F)F (stereo not shown) [Example 24, 8-(3,4-Difluorophenyl)-9-[6-(methyl{3-[(4,4,5,5,5-pentafluoropentyl)sulphinyl]propyl}amino)hexyl]-6,7-dihydro-5H-benzo[7]annulen-3-ol] | 8 nM
CN(CCCCCCC1=C(c2cc(F)cc(F)c2)CCCc2cc(O)ccc21)CCCS(=O)(=O)CCCC(F)(F)C(F)(F)F [Example 1, 8-(3,5-Difluorophenyl)-9-[6-(methyl{3-[(4,4,5,5,5-pentafluoropentyl)sulphonyl]propyl}amino)hexyl]-6,7-dihydro-5H-benzo[7]annulen-3-ol] | 48 nM
